# Source: US11174287B2, “Central nervous system homing peptides and uses thereof” (UNIVERSITY OF MARYLAND, BALTIMORE, priority 2017, dated 2021)
# Ends that are not written are not given here.
# Key:
# [1] = tested on: spleen, kidney, liver and lung tissue of normal mice; experiment: Peptide overlay assay, FITC-labeled peptide binding in various organs of normal mice; parameters: species or system mouse
# Source text: (§1) The peptide sequences were synthesized by Genscript (NJ, USA) with at least 95% purity. For fluorescent peptides, fluorescein isothiocyanate (FITC) dye was conjugated at the amino terminus of peptides. The excitation/emission wavelengths for FITC were 490/520 nm.
# [2] = tested on: spleen, kidney, liver and lung tissue of EAE mice; experiment: Peptide overlay assay, FITC-labeled peptide binding to various organs of EAE mice; parameters: species or system mouse
# Source text: as §1
# [3] = tested on: inflamed central nervous system (spinal cord, brain) of EAE mice; experiment: NIR imaging of brain and spinal cord after i.v. injection of Cy7-labeled peptide (IVIS Xenogen); format: in vivo, mouse; details: for accumulation (NIR signal) in the spinal cord: perfused
# Procedure: The antigen was prepared by emulsifying the myelin oligodendrocyte glycoprotein (MOG) region of 35-55 peptide sequence with at least >98% purity based on mass spectrophotometry (CS Bio, CA, USA) with an equal volume of complete Freund's adjuvant (CFA) containing 5 mg/ml of heat killed desiccated M. tuberculosis-H37RA (Bacto, MI, USA). The suspension was thoroughly mixed to form a thick emulsion. Experimental autoimmune encephalomyelitis (EAE), which closely resembles human multiple sclerosis (MS) was induced in C57BL/6 mice by subcutaneous injection of 200 μg/MOG/mouse. In addition, 2 doses of 200-400 ng each of Pertussis toxin (Calbiochem, CA, USA) were administered i.p. after MOG injection at 0 and 48 hours.
# Near Infrared (NIR) Cyanine 7 (Cy7) dye-labeled test peptide CRGGKRSSC (SEQ ID NO:14) or control peptide was injected into the tail vein of diseased (EAE) mice and naive (control) mice. The peptides were allowed to circulate for 24 hours. Thereafter, mice were euthanized, perfused extensively through the heart using PBS. Following that, the brain and spinal cord were removed and scanned for NIR imaging signals using IVIS Xenogen imaging System.
# [4] = tested on: spinal cord and brain cerebellum of EAE mice; experiment: FITC-labeled peptide binding to spinal cord and brain cerebellum; parameters: species or system mouse; details: compared to scrambled peptide CSGRRGKSC
# Source text: as §1
Substance,"binding of FITC-labeled peptide to spleen, kidney, liver and lung tissue [1]","binding of FITC-labeled peptide to spleen, kidney, liver and lung tissue [2]","NIR signal in the cerebellum ([3]; EAE mice versus control mice and control peptide, intensity relative to spinal cord, 24 hours)","accumulation (NIR signal) in the spinal cord ([3]; EAE mice, tail vein injection, 24 hours circulation)","accumulation (NIR signal) in the spinal cord ([3]; naive (control) mice, tail vein injection, 24 hours circulation)","NIR signal in the cerebrum ([3]; tail vein injection, 24 hours circulation)",homing when injected into the bloodstream ([3]; EAE mice versus normal mice),binding of FITC-labeled peptide to spinal cord and cerebellum [4]
"CRAKGRDAC (cysteine pairing not given here; also: FITC label, site not given here) [CNS-homing peptide containing the RAK motif]",minimal binding,minimal binding except for lung,,,,,,
"KRSS-Cy7: Near Infrared cyanine 7 (Cy7) dye-labeled test peptide CRGGKRSSC (SEQ ID NO:14) (cysteine pairing not given here; also: Cy7 dye label, site not given here)",,,much lower in intensity,significantly higher accumulation,barely showed any detectable signal,no signal was detected,,
"CRGGKRSSC (cysteine pairing not given here; also: FITC label, site not given here) [CNS-homing peptide from CX7C phage library, denoted ""KRSS""]",minimal binding except for spleen,minimal binding,,,,,preferentially homed to inflamed spinal cord of EAE mice but not in normal mice,significantly higher binding
